The test system of this test is Human macrophages. The experiment in a line: Human macrophage intracellular reactive oxygen species (H2DCFDA). The class given is cell-based. The note with it: 10 pM-100 nM, 15 min, then E. coli 45 min. Here is the method: Leukocyte phagocytosis: Macrophages were prepared from peripheral blood mononuclear cells (PBMC) purchased from Children's Hospital Blood Bank, Boston, and phagocytosis was assessed as in (11). Briefly, macrophages (5×10^4 cells,/well) were incubated with SCI (10 pM-100 nM), SCII (10 pM-100 nM), MaR1 (10 pM-100 nM), or vehicle (0.1% EtOH in DPBS) for 15 min at 37° C., then fluorescent labeled apoptotic cells were added and cells incubated 45 min at 37° C. Extracellular fluorescence was quenched using Trypan blue (1:15 dilution) and phagocytosis assessed using an M3 SpectraMax plate reader. In select experiments, macrophages (5×10^4 cells/well) or neutrophils (1×10^5 cells/well) were obtained from human healthy volunteers' peripheral blood as in (11) in accordance with Partners Human Research Committee Protocol (#1999P001297), and incubated with H2DCFDA (5 μM, 30 min, 37° C.), then with SCI (10 pM-100 nM), SCI (10 pM-100 nM) or vehicle (0.1% EtOH in DPBS, 15 min, 37° C.) and E. coli (1:50 leukocytes to E. coli, 45 min, 37° C.) Intracellular reactive oxygen species were determined by measuring fluorescence using an M3 SpectraMax plate reader. […]

“Also recorded” adds a separate entry of the source.

Regarding “13-glutathionyl, 14-hydroxy-docosahexaenoic acid [SCI]”, the “macrophage intracellular reactive oxygen species” value is reported as “enhanced; also recorded: Stimulates human”.
Regarding `CCC=CCC=CCC(O)C(C=CC=CC=CCC=CCCC(=O)O)SCC(N)C(=O)NCC(=O)O` (centres unmarked) [SCII, 13-cysteinylglycinyl, 14-hydroxy-docosahexaenoic acid], the “macrophage intracellular reactive oxygen species” value is on record as “enhanced”.

For the origin of these results see patent US11135228B2, “Cysteinyl-proresolving mediators that promote resolution of infection and organ protection” (THE BRIGHAM AND WOMEN'S HOSPITAL, priority 2014, dated 2021).
